Experimental data from patent US20230203014A1, “NOVEL F[…] FOR LABELING TUMOR TISSUE” (PROIMAGING, priority 2020, published 2023).

What was measured:
[1] = system: 4T1-Dendra2 mammary tumors; experiment: in vivo imaging of mammary tumors (fluorescence, IVIS Spectrum); set-up: species or system mice; conditions: starting from 48 h post-injection
From the text: ICG (or indocyanine green / Infracyanine) is a fluorescent agent of the prior art, already approved for use in humans for evaluation of cardiac and hepatic function, as well as in ophthalmology, for retinal diseases. It is also undergoing evaluation in many clinical trials throughout the world for guidance of surgery during tumoral exereses, or mapping of the ganglia draining the tumors, by near infrared imaging. ICG was compared with compound (2) according to the invention, synthesis of which is described above in example 2; this compound is called CJ215 in this study.
The study included 30 mice in total, distributed in three groups. The tumoral grafts were all carried out with 50 000 cells 4T1-Dendra2 /20 µl injected in 2 mammary glands contralaterally for each of the mice. […]
The variation of the intensity of the fluorescence signals recorded for each of the biomarkers over time was evaluated from the microscopy image. The capacity of the two markers for producing a signal specifically localized to the tumor was assessed quantitatively by calculating the ratio of the specific signal associated with the tumor to the nonspecific signal in the surrounding tissues. […]
The quantitative measurements were performed on the raw images, which had not been deconvoluted. […]

[2] = system: orthotopic pancreatic adenocarcinoma; experiment: ex vivo fluorescence imaging of pancreatic tumors; assay type: in vivo, mouse; conditions: control dye
Method: A model of orthotopic pancreatic adenocarcinoma in the mouse was developed. The tumoral cells were amplified subcutaneously in SCID mice and the resultant fragments were then implanted surgically in the pancreas of irradiated BALB/c nude mice.
The development of the tumor was monitored in vivo by MRI (4.7T, PharmaScan, Bruker Biospin) at three time points, D14, 28 and 36. The animals were subjected to […] in order to minimize autofluorescence. Fluorescent imaging was performed with a charge-coupled device (CCD) camera (PhotonRT, BiospaceLab) with excitation at 700 nm and an emission filter at 770 nm.
After sessions of in vivo imaging performed at 2 h, 48 h and 164 h, ex vivo fluorescent images were acquired. The fluorescent compounds according to the invention 2 (CJ215) and CJ319 (the structure of which is detailed below) were injected intravenously at 2 mg/kg, 39 days after implantation of the tumor fragments, whereas the average volumes of the tumors were about 70 mm^3. Indocyanine green (ICG), a dye widely used in the per-operative imaging of tumors, was included as a control.

For CC1(C)C(/C=C/C=C/C=C/C=C2\N(CCCCS(=O)(=O)O)c3ccc4ccccc4c3C2(C)C)=[N+](CCCCS(=O)(=O)[O-])c2ccc3ccccc3c21 [ICG, indocyanine green], which “observability of the fluorescent signal in the tumors” value [1] is on record?
The value was “no longer observable in the tumors”.

And the “specific accumulation in the pancreas or the tumor” value [2]?
The value was “did not show any specific accumulation”.
